Structures are written as SMILES.

Test [1] addresses JAK2 (Homo sapiens (Human), UniProt O60674). The experiment in a line: Jak Biochemical HTRF Assay, JAK2. Particulars: HTRF biochemical assay, GST-tagged catalytic domain; top concentration tested […]. An excerpt: (§1) Jak Biochemical HTRF Assay Protocol
(§2) Subsequent reagent additions employed an Agilent Bravo.
In general terms: In TR-FRET formats the signal depends on donor and acceptor labels being close together.

The target in test [2] is JAK1 (Homo sapiens (Human), UniProt P23458). The experiment in a line: Jak Biochemical HTRF Assay, JAK1. As to conditions: HTRF biochemical assay, GST-tagged catalytic domain; top concentration tested […]; read-out: JAK1 IC50.
Excerpt: as §1, §2

Sequence of JAK2 (O60674 849-1124): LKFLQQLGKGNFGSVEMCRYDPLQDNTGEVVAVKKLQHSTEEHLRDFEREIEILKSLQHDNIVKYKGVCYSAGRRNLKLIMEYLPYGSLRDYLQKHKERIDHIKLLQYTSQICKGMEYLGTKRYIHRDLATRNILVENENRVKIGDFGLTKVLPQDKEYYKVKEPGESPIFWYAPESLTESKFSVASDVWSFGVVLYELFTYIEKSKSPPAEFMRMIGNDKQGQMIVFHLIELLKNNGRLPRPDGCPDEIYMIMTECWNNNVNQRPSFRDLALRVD
Sequence of JAK1 (P23458 875-1153): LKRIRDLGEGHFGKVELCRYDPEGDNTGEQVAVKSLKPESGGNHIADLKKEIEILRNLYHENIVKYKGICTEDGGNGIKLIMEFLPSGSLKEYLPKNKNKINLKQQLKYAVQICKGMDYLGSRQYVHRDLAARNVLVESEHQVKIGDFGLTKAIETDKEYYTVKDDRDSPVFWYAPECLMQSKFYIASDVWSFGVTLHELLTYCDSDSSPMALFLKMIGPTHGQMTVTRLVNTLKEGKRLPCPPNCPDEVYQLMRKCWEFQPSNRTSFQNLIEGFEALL

Turning to `CC(C)[C@H](O)C(=O)N1CCC(CC#N)(n2cc(C(N)=O)c(Nc3ccnc(F)c3)n2)CC1` [Example 34-47, 1-{4-(cyanomethyl)-1-[(2S)-2-hydroxy-3-methylbutanoyl]piperidin-4-yl}-3-[(2-fluoropyridin-4-yl)amino]-1H-pyrazole-4-carboxamide], the IC50 came to 79 nM in test [1] and 2 nM in test [2].

Take `CC(C(=O)N1CCC(CC#N)(n2cc(C(N)=O)c(Nc3ccnc(F)c3)n2)CC1)C(F)(F)F` (stereo not drawn) [Example 34-48, 1-[4-(cyanomethyl)-1-(3,3,3-trifluoro-2-methylpropanoyl)piperidin-4-yl]-3-[(2-fIuoropyridin-4-yl)amino]-1H-pyrazole-4-carboxamide]: the IC50 came to 13 nM in test [1] and 0.3 nM in test [2].

Take `N#CCC(=O)N1CCC(CC#N)(n2cc(C(N)=O)c(Nc3ccnc(F)c3)n2)CC1` [Example 34-49, 1-[1-(cyanoacetyl)-4-(cyanomethyl)piperidin-4-yl]-3-[(2-fIuoropyridin-4-yl)amino]-1H-pyrazole-4-carboxamide]: the IC50 was 9 nM in test [1] and 0.2 nM in test [2].

Consider `CC(C)(O)CC(=O)N1CCC(CC#N)(n2cc(C(N)=O)c(Nc3ccnc(F)c3)n2)CC1` [Example 34-50, 1-[4-(cyanomethyl)-1-(3-hydroxy-3-methylbutanoyl)piperidin-4-yl]-3-[(2-fluoropyridin-4-yl)amino]-1H pyrazole-4-carboxamide], for which the concentration for half-maximal inhibition (IC50) in test [1] was 8 nM; in test [2], 0.2 nM.

Regarding `N#CCC1(n2cc(C(N)=O)c(Nc3ccnc(F)c3)n2)CCN(C(=O)C2(C(F)(F)F)CCC2)CC1` [Example 34-51, 1-[4-(cyanomethyl)-1-{[1-(trifluoromethyl)cyclobutyl]carbonyl}piperidin-4-yl]-3-[(2-fluoropyridin-4-yl)amino]-1H-pyrazole-4-carboxamide], the IC50 in test [1] was determined as 37 nM; in test [2] it was 4 nM.

Take `N#CCC1(n2cc(C(N)=O)c(Nc3ccnc(F)c3)n2)CCN(C(=O)Cn2ccnc2)CC1` [Example 34-52, 1-[4-(cyanomethyl)-1-(1H-imidazol-1-ylacetyl)piperidin-4-yl]-3-[(2-fluoropyridin-4-yl)amino]-1H-pyrazole-4-carboxamide]: the values for the IC50 in test [1] and in test [2] were 154 nM and 4 nM, respectively.

For the molecule `N#CCC1(n2cc(C(N)=O)c(Nc3ccnc(F)c3)n2)CCN(C(=O)C2CC(F)(F)C2)CC1` [Example 34-53, 1-{4-(cyanomethyl)-1-[(3,3-difluorocyclobutyl)carbonyl]piperidin-4-yl}-3-[(2-fluoropyridin-4-yl)amino]-1H-pyrazole-4-carboxamide], the IC50 in test [1] stood at 15 nM; in test [2], 0.3 nM.

Take `CC(C)(C)CC(=O)N1CCC(CC#N)(n2cc(C(N)=O)c(Nc3ccnc(F)c3)n2)CC1` [Example 34-54, 1-[4-(cyanomethyl)-1-(3,3-dimethylbutanoyl)piperidin-4-yl]-3-[(2-fluoropyridin-4-yl)amino]-1H-pyrazole-4-carboxamide]: the IC50 worked out at 44 nM in test [1] and 0.6 nM in test [2].

`CC(C)(C(=O)N1CCC(CC#N)(n2cc(C(N)=O)c(Nc3ccnc(F)c3)n2)CC1)C(F)(F)F` [Example 34-55, 1-[4-(cyanomethyl)-1-(3,3,3-trifluoro-2,2-dimethylpropanoyl)piperidin-4-yl]-3-[(2-fluoropyridin-4-yl)amino]-1H-pyrazole-4-carboxamide]: the IC50 in test [1] amounted to 28 nM; in test [2] it was 1 nM.

As to `N#CCC1(n2cc(C(N)=O)c(Nc3ccnc(F)c3)n2)CCN(C(=O)C2(C(F)(F)F)CC2)CC1` [Example 34-56, 1-[4-(cyanomethyl)-1-{[1-(trifluoromethyl)cyclopropyl]carbonyl}piperidin-4-yl]-3-[(2-fluoropyridin-4-yl)amino]-1H-pyrazole-4-carboxamide], the IC50 amounted to 40 nM in test [1] and 2 nM in test [2].

Consider `N#CCC1(n2cc(C(N)=O)c(Nc3ccnc(F)c3)n2)CCN(C(=O)CCC(F)(F)F)CC1` [Example 34-57, 1-[4-(cyanomethyl)-1-(4,4,4-trifluorobutanoyl)piperidin-4-yl]-3-[(2-fluoropyridin-4-yl)amino]-1H-pyrazole-4-carboxamide], for which the results for the IC50 in test [1] and in test [2] were 9 nM and 0.1 nM, respectively.

As for `CS(=O)(=O)CC(=O)N1CCC(CC#N)(n2cc(C(N)=O)c(Nc3ccnc(F)c3)n2)CC1` [Example 34-58, 1-{4-(cyanomethyl)-1-[(methylsulfonyl)acetyl]piperidin-4-yl}-3-[(2-fluoropyridin-4-yl)amino]-1H-pyrazole-4-carboxamide], the IC50 came to 22 nM in test [1] and 0.5 nM in test [2].

For `CCC(F)(F)C(=O)N1CCC(CC#N)(n2cc(C(N)=O)c(Nc3ccnc(F)c3)n2)CC1` [Example 34-59, 1-[4-(cyanomethyl)-1-(2,2-difluorobutanoyl)piperidin-4-yl]-3-[(2-fluoropyridin-4-yl)amino]-1H-pyrazole-4-carboxamide], the IC50 in test [1] amounted to 3 nM; in test [2] it was 0.2 nM.

For `CC1(C(=O)N2CCC(CC#N)(n3cc(C(N)=O)c(Nc4ccnc(F)c4)n3)CC2)CCC1` [Example 34-60, 1-{4-(cyanomethyl)-1-[(1-methylcyclobutyl)carbonyl]piperidin-4-yl}-3-[(2-fluoropyridin-4-yl)amino]-1H-pyrazole-4-carboxamide], the IC50 in test [1] turned out to be 115 nM; in test [2] it was 8 nM.

For the molecule `CC(O)(C(=O)N1CCC(CC#N)(n2cc(C(N)=O)c(Nc3ccnc(F)c3)n2)CC1)C(F)F` (stereo not drawn) [Example 34-61, 1-[4-(cyanomethyl)-1-(3,3-difluoro-2-hydroxy-2-methylpropanoyl)piperidin-4-yl]-3-[(2-fluoropyridin-4-yl)amino]-1H-pyrazole-4-carboxamide], the figures for the IC50 in test [1] and in test [2] were 38 nM and 2 nM, respectively.

With `C[C@@H](O)CC(=O)N1CCC(CC#N)(n2cc(C(N)=O)c(Nc3ccnc(F)c3)n2)CC1` [Example 34-62, 1-{4-(cyanomethyl)-1-[(3R)-3-hydroxybutanoyl]piperidin-4-yl}-3-[(2-fluoropyridin-4-yl)amino]-1H-pyrazole-4-carboxamide], the IC50 in test [1] amounted to 47 nM; in test [2] it was 1 nM.

Consider `N#CCC1(n2cc(C(N)=O)c(Nc3ccnc(F)c3)n2)CCN(C(=O)CC(F)(F)F)CC1` [Example 35-2, 1-(4-(cyanomethyl)-1-(3,3,3-trifluoropropanoyl)piperidin-4-yl)-3-(2-fluoropyridin-4-ylamino)-1H-pyrazole-4-carboxamide], for which the IC50 in test [1] turned out to be 10 nM; in test [2], 0.2 nM.

With `N#CCC1(n2cc(C(N)=O)c(Nc3cncc(F)c3)n2)CCN(C(=O)CC(F)(F)F)CC1` [Example 35-3, 1-(4-(cyanomethyl)-1-(3,3,3-trifluoropropanoyl)piperidin-4-yl)-3-(5-fluoropyridin-3-ylamino)-1H-pyrazole-4-carboxamide], the results for the IC50 in test [1] and in test [2] were 35 nM and 3 nM, respectively.

Take `N#CCC(=O)N1CCC(CC#N)(n2cc(C(N)=O)c(Nc3ccccc3)n2)CC1` [Example 36-1, 1-[1-(Cyanoacetyl)-4-(cyanomethyl)piperidin-4-yl]-3-(phenylamino)-1H-pyrazole-4-carboxamide]: the IC50 in test [1] amounted to 77 nM; in test [2], 5 nM.

Consider `CS(=O)(=O)c1ccc(Nc2nn(C3(CC#N)CCN(C(=O)CC#N)CC3)cc2C(N)=O)cc1` [Example 36-2, 1-[1-(cyanoacetyl)-4-(cyanomethyl)piperidin-4-yl]-3-{[4-(methylsulfonyl)phenyl]amino}-1H-pyrazole-4-carboxamide], for which the results for the IC50 in test [1] and in test [2] were 10 nM and 0.6 nM, respectively.

On to `CC(C)S(=O)(=O)N1CCC(CC#N)(n2cc(C(N)=O)c(Nc3ccccc3)n2)CC1` [Example 37-1, 1-[4-(Cyanomethyl)-1-(isopropylsulfonyl)piperidin-4-yl]-3-(phenylamino)-1H-pyrazole-4-carboxamide], for which the IC50 was 13 nM in test [1] and 2 nM in test [2].

As for `CS(=O)(=O)N1CCC(CC#N)(n2cc(C(N)=O)c(Nc3ccccc3)n2)CC1` [Example 37-2, 1-[4-(cyanomethyl)-1-(methylsulfonyl)piperidin-4-yl]-3-(phenylamino)-1H-pyrazole-4-carboxamide], the IC50 in test [1] is 3 nM; in test [2], 0.4 nM.

Consider `CCS(=O)(=O)N1CCC(CC#N)(n2cc(C(N)=O)c(Nc3ccccc3)n2)CC1` [Example 37-3, 1-[4-(cyanomethyl)-1-(ethylsulfonyl)piperidin-4-yl]-3-(phenylamino)-1H-pyrazole-4-carboxamide], for which the IC50 in test [1] worked out at 12 nM; in test [2], 1 nM.

In the case of `N#CCC1(n2cc(C(N)=O)c(Nc3ccccc3)n2)CCN(S(=O)(=O)c2ccco2)CC1` [Example 37-4, 1-[4-(cyanomethyl)-1-(furan-2-ylsulfonyl)piperidin-4-yl]-3-(phenylamino)-1H-pyrazole-4-carboxamide], the half-maximal inhibitory concentration (IC50) was 2 nM in test [1] and 0.6 nM in test [2].

As to `N#CCC1(n2cc(C(N)=O)c(Nc3ccccc3)n2)CCN(S(=O)(=O)C(F)(F)F)CC1` [Example 37-5, 1-{4-(cyanomethyl)-1-[(trifluoromethyl)sulfonyl]piperidin-4-yl}-3-(phenylamino)-1H-pyrazole-4-carboxamide], the IC50 in test [1] was found to be 6 nM; in test [2], 0.7 nM.

With `N#CCC1(n2cc(C(N)=O)c(Nc3ccccc3)n2)CCN(S(=O)(=O)c2ccccc2)CC1` [Example 37-6, 1-[4-(cyanomethyl)-1-(phenylsulfonyl)piperidin-4-yl]-3-(phenylamino)-1H-pyrazole-4-carboxamide], the values for the IC50 in test [1] and in test [2] were 1 nM and 0.3 nM, respectively.

As to `Cn1cnc(S(=O)(=O)N2CCC(CC#N)(n3cc(C(N)=O)c(Nc4ccccc4)n3)CC2)c1` [Example 37-7, 1-{4-(cyanomethyl)-1-[(1-methyl-1H-imidazol-4-yl)sulfonyl]piperidin-4-yl}-3-(phenylamino)-1H-pyrazole-4-carboxamide], the values for the IC50 in test [1] and in test [2] were 9 nM and 2 nM, respectively.

As a reminder, the IC50 is the concentration that gives 50% inhibition.

These data come from patent publication US9328099B2, “Cyanomethylpyrazole carboxamides as janus kinase inhibitors” (Merck Sharp & Dohme Corp., priority 2011, dated 2016).
